We go through eight compounds from publication PMC11323273, “A Multipurpose Metallophore and Its Copper Complexes with Diverse Catalytic Antioxidant Properties to Deal with Metal and Oxidative Stress Disorders: A Combined Experimental, Theoretical, and In Vitro Study” (Inorganic Chemistry, 2024).

One data set relates to Rat glioma C6 cells. Kind of data set: ROS mitigation in cells using DCFH-DA. It is filed as cell-based. The protocol:
Rat C6 glioma cells were grown in a 25 cm^2 culture flask containing Dulbecco’s modified Eagle medium (DMEM) supplemented with 10% (v/v) fetal bovine serum (FBS) at 37 °C in a 5% CO2 atmosphere.
To evaluate redox homeostasis, the level of ROS was assessed using the redox-sensitive dye 2′,7′-dichlorodihydrofluorescein diacetate (DCFH-DA). Rat C6 glioma cells were seeded at a density of 1 × 10^5 cells/well in a 96-well plate and cultured in high-glucose DMEM supplemented with 10% (v/v) FBS at 37 °C in a 5% CO2 atmosphere. The cells were pretreated with the compounds (25 μmol L^–1) and incubated for 24 h. The cells were washed and subjected to different oxidative stress models for 1 h, including (i) metallic stress via the addition of 25 μmol L^–1 CuCl, (ii) direct addition of a 25 μmol L^–1 hydrogen peroxide solution, (iii) superoxide anion (O2^•–) generated by the xanthine ([…])/xanthine oxidase (0.1 unit/mL) enzymatic system, and (iv) hydroxyl radical (^•OH) generated by the Fenton reaction using 0.4 μmol L^–1 CuCl and 4 μmol L^–1 H2O2. The concentrations refer to the final concentrations of each well. After exposure to the oxidative stress conditions, the cells were washed and incubated with DCFH-DA (10 μmol L^–1) for 45 min. The fluorescence was measured using the model M200 Tecan Infinite microplate reader with excitation and emission wavelengths of 450 and 535 nm, respectively.

For data set [1] the following is noted: cited from earlier work.
A short description of data set [2]: Potentiometric titration: protonation equilibria and species distribution. It is filed as physicochemical. To be noted: 70:30 ethanol/water solution, 25 °C, read-out: log K [H2L^+]/[HL][H^+] (pKa of the amine group). On the procedure: The potentiometric studies were carried out with a Corning 350 digital pH meter fitted with blue-glass and Ag/AgCl reference electrodes calibrated to read −log[H^+] directly, designated as pH. Doubly distilled water in the presence of KMnO4 was used to prepare the solutions. For the ligands, the study was performed in a 70:30 ethanol/water solution, while the copper complexes were studied in water. The electrode was calibrated using the data obtained from the potentiometric titration of a known volume of a standard 0.100 mol L^–1 HCl solution with a standard 0.100 mol L^–1 KOH solution. The ionic strength of the HCl solution was maintained at 0.100 mol L^–1 upon the addition of KCl. […]
The titration curves were processed with BEST7,[86] which has as input file: titrant concentration, an initial value for the number of millimoles of the species under investigation, the volume increments of the titrant added, and the corresponding values of pH measured during titration. The program uses the least-squares method to minimize the differences between the calculated pH values and the experimental ones obtained during the titration, keeping fixed the values of the known equilibrium constants, such as those for the hydrolysis of the metal ion,[87] and varying the values of the constants to be determined, minimizing the error. […]

Details of data set [3]: method as in PMID 4833643. The settings on record: cited from earlier work.
Details of data set [4]: method as in doi:10.3390/pr10010132. The settings on record: studied under the same conditions; read-out: RSA50; cited from earlier work.

Where two headings read alike, the source gives them in different places.

As to `[Cl][Cu]` [Cu(I), CuCl, reference compound], the “increase of cell fluorescence (ROS level) compared to the control” value in the data set with Rat glioma C6 cells (25 μmol L^–1 CuCl, 1 h) amounted to 3 fold. One may read the IC50 as the point on the concentration scale where inhibition reaches its midpoint. `[Cl][Cu][Cl]` [CuCl2·2H2O]: the IC50 in data set [1] was 910 ± 191 nM. Turning to `CC(O)CNCc1ccccn1` (stereo not shown) [HL, 1-(pyridin-2-ylmethylamino)propan-2-ol], the pKa in data set [2] amounted to 8.11. Also, the “antioxidant effect in cells exposed to hydroxyl radical” value in the data set on Rat glioma C6 cells (pretreatment 25 μmol L^–1, 24 h, 0.4 μmol L^–1 CuCl and 4 μmol L^–1 H2O2 1 h) was “HL ∼ 1 > 2”. In addition, the “redox status of cells exposed to Cu(I) (DCFH-DA fluorescence)” value in the data set with Rat glioma C6 cells (pretreatment 25 μmol L^–1, 24 h, 25 μmol L^–1 CuCl 1 h) is “no change in the cell redox status”. In the data set with Rat glioma C6 cells (pretreatment 25 μmol L^–1, 24 h, 25 μmol L^–1 H2O2 1 h), the “protection of cells against exogenous H2O2 (redox level)” value was “maintaining the redox state at the basal level”. The “antioxidant protection of cells against superoxide radical anion” value in the data set on Rat glioma C6 cells (pretreatment 25 μmol L^–1, 24 h, xanthine/xanthine oxidase 1 h) is given as “maintaining the redox state at the basal level”. Further, the “pKa of the pyridine group” value in data set [3] is reported as under 3.

Consider `NC(=O)CCNCCNCCC(N)=O.[Cl-].[Cl-].[Cu+2]` [[Cu(BCEN)]Cl2·2H2O], for which the 50% inhibitory concentration (IC50) in data set [1] is 179 ± 17 nM.

For the compound `NC(=O)CCN1CCCN(CCC(N)=O)CC1.[Cl-].[Cl-].[Cu+2]` [[Cu(BPAH)H2O]Cl2], the IC50 in data set [1] was 129 ± 33 nM.

As for `NC(=O)CCN1CCN(CCC(N)=O)CC1.[Cl-].[Cl-].[Cu+2]` [[Cu(BPAP)H2O]Cl2], in data set [1], the IC50 is 168 ± 30 nM. As for `[Cl][Cu][Cl].c1ccc(CNCc2ccccn2)nc1` [[Cu(bmpa)Cl2]], the EC50 in data set [4] is 1.07 mM. Consider `c1ccc(CNCc2ccccn2)nc1` [bis(2-pyridylmethyl)amine, reference compound], for which the pKa in data set [3] (amine group) is 7.28.
